Reference: patent publication US12060588B2, “Methods of editing DNA methylation” (Whitehead Institute for Biomedical Research, priority 2016, dated 2024)

What was measured:
[1] = system: BDNF promoter IV / BDNF expression; assay: BDNF expression in mouse cortical neurons (RT-qPCR); format: cell-based
Protocol: (§1) FIGS. 3A-3E depict targeted demethylation of BDNF promoter IV by dCas9-Tet1 to activate BDNF in neurons. FIG. 3A provides a schematic representation of targeting BDNF promoter IV by dCas9-Tet1 (dC-T) with specific gRNAs to erase methylation and activate BDNF expression. […] Bars are mean t SD of three biological replicates. FIG. 3C provides representative confocal images for BDNF induction in FIG. 3B. Top panel: BDNF expression was induced by 50 mM KCl treatment for 6 hrs. […] Stained in red for MAP2 (top two panels) or Cherry (bottom two panels), green for BDNF, blue for DAPI and grey for dCas9. Scale bar: 50 um. FIG. 3D depicts bisulfite sequencing of neurons in FIG. 3C. […] Shown is the mean percentage±SD of two biological replicates.
FIGS. 11A-11L depict targeted demethylation of BDNF promoter IV by dCas9-Tet1 in neurons. […] PAM for each gRNA is highlighted by a red box. […] Note that cultured neurons were treated with AraC on DIV2 to halt cell division in glial cells and neural progenitors. […] FIG. 11C provides EDU labeling analysis for the mouse primary neurons over the course of KCl treatment for 24 hrs. Note that extremely few EDU positive cells were observed. Stained in red for EDU, green for MAP2 and DAPI for nuclei. Scale bar: 500 um. FIG. 11D Upper panel: provides quantification of neuronal density over the course of KCl treatment. The post-mitotic neuron density remains steadily around 4.5×10^4/cm2 over time. Bars represent mean±SD of three experimental replicates. Lower panel: provides quantification of the EDU positive cells over the course of KCl treatment. Less than 2% of the cells are EDU-positive over 24 hrs. Bars represent mean±SD of three experimental replicates. FIG. 11E provides confocal micrographs of BDNF induction by ectopic expression of dCas9-Tet1 and a set of 4 gRNAs targeting BDNF promoter IV. Stained in green for BDNF, magenta for MAP2, red for Cherry and blue for DAPI. Note that the lentiviral infection efficiency is close to 100% in these neurons. Scale bar: 50 um. […] Bars represent mean±SD of three experimental replicates. […] FIG. 11J depicts DIV3 mouse cortical neurons were treated with ABT (50 uM) for 6 hours and then treated with KCl (50 mM) for 6-hour before harvest for RT-qPCR analysis. Bars represent mean±SD of three experimental replicates. FIG. 11K depicts DIV3 mouse cortical neurons were treated with 2-Hydroxyglutarate (10 mM) for 2 hours and then treated with KCl (50 mM) for 6-hour before harvest for RT-qPCR analysis. Bars represent mean±SD of three experimental replicates. FIG. 11L depicts DIV3 mouse cortical neurons derived from wild-type or Tet1 knockout E17.5 embryos were subject to time course KCl treatment experiments (6, 9 and 12 h). Bars represent mean±SD of three experimental replicates.
DNA replication-independent active demethylation has been proposed to operate in post-mitotic neurons (Guo et al., 2011; Martinowich et al., 2003). To test whether active demethylation can be induced in post-mitotic neurons, we applied the dCas9-Tet1 system to study the regulation of the BDNF gene. BDNF expression can be induced by neuronal activity accompanied by demethylation of its promoter IV (Chen et al., 2003; Martinowich et al., 2003). We designed 4 gRNAs targeting 11 CpGs in BDNF promoter IV (FIG. 11A) to determine whether dCas9-Tet1 can activate BDNF by inducing demethylation of this promoter (FIG. 3A). Mouse cortical neurons were isolated from E17.5 embryos and cultured for two days in vitro (DIV2) following a well-established experimental procedure for producing primary neuronal culture (Ebert et al., 2013). […] Neurons at day 3 in culture (DIV3) were infected with lentiviral vectors expressing dCas9-Tet1 with or without the 4 gRNAs at almost 100% transduction efficiency (FIG. 11E). At 48-hour post infection some of the cultures were treated with KCl to induce neuronal activity. […] We performed bisulfite sequencing to examine the methylation state of BDNF promoter IV. […]

[2] = system: C3H10T1/2 mouse embryonic fibroblast cells; assay: Fibroblast-to-myoblast conversion assay; format: cell-based; conditions: for fraction of mock C3H10T1/2 cells expressing MyoD: after 5-Aza treatment (1 uM, 24-hour)
Text: FIGS. 4A-4H depict targeted demethylation of the MyoD distal enhancer by dCas9-Tet1 to facilitate conversion of fibroblasts to myoblasts. FIG. 4A provides a schematic representation of targeting the MyoD distal enhancer (DE) region in DMR-5 by dCas9-Tet1 (dC-T) with specific gRNAs. […] Cherry positive cells were FACS sorted for RT-qPCR analysis. Bars represent mean±SD of three experimental replicates. FIG. 4C bisulfite sequencing of cells in FIG. 4B. […] Shown is the mean percentage±SD of two biological replicates. […] C3H10T1/2 cells were plated as 1×10^4 cells per well in 6-well plate, and then infected with lentiviruses expressing dC-T and gRNAs targeting DMR-5, or a catalytic dead form of Tet1 (dC-dT) with target gRNAs. 24-hour post infection, cells were treated with vehicle control (HEPES buffer) or 5-Azacytidine (1 uM) for 24-hour, and then harvested after 14 days for immunofluorescence staining. Stained in green for MyoD, magenta for MHC and blue for DAPI. Scale bar: 200 um. FIG. 4F provides quantification of MyoD positive cell ratio 14-day post infection with lentiviruses expressing dC-T alone, dC-T with gRNAs targeting DMR-5, and dC-dT with the target gRNAs. […] FIG. 4H provides quantification of myotube density in MHC positive clusters with more than 2 or 5 nuclei at 14-days after infection. […] Data are quantified from 3-5 representative images for F-H. Bars represent mean±SD.
FIGS. 12A-12J depict targeted demethylation of the MyoD DMR-5 by dCas9-Tet1 and conversion of fibroblasts to myoblasts. […] PAM for each sgRNA is highlighted by a red box. FIG. 12B provides experimental scheme of the fibroblast-to-myoblast conversion assay. Briefly, C3H10T1/2 mouse embryonic fibroblast cells were plated as 1×10^4 cells per well in 6-well plate, and then infected with lentiviruses expressing dCas9-Tet1 and target gRNAs. 24-hour post infection, cells were optionally treated with 5-Azacytidine (1 uM) for 24-hour (labeled in red), and harvested for immunofluorescence staining at different time points (day-14, -16 and -25, labeled in dark blue) with medium change every other day. Scale bar: 100 um. […] Stained in green for MHC, red for MyoD and blue for DAPI. Scale bar: 200 um. FIG. 12D depicts a fraction of mock C3H10T1/2 cells expressing MyoD at different times after 5-Aza treatment. The fraction of cells expressing MyoD increases from around 6% at day 14 to around 13% at day 16 and reached around 20% at day 25. Bars represent mean±SD. FIG. 12E provides number of nuclei in MHC+ cell clusters (grouped as 1-2 and >2 nuclei per MHC+ cluster). […] Bars represent mean±SD. Data was quantified from 3-5 representative images for each group in FIG. 12D and FIG. 12E. […] Bars represent mean±SD of three experimental replicates. FIG. 12G provides representative images for C3H10T1/2 cells 16 days after infection with lentiviruses expressing dC-T and gRNAs targeting DMR-5 (MyoD distal enhancer) in a fibroblast-to-myoblast conversion assay as described in FIG. 12B. […] Stained in magenta for MHC, green for MyoD and blue for DAPI. Scale bar: 200 um. FIG. 12H depicts a fraction of MyoD positive cells 16 days after infection with lentiviruses expressing dC-T alone or with gRNAs targeting DMR-5. FIG. 12I show a number of nuclei in MHC+ cell clusters (grouped as 2-5, 6-10, 11-20 and >20 nuclei per MHC+ cluster) 16 days after infection. […] Data are quantified from 3-5 representative images for FIGS. 12H-12J. Bars represent mean±SD.
We then investigated whether targeted demethylation of DMR-5 would synergize with 5-Aza treatment to induce myotube formation (FIG. 12B). To follow the process of myotube formation after 5-Aza treatment, a time-course experiment was performed. Multi-nucleated myotube (MHC-positive) with heterogeneous sizes began to form 14 days post treatment, and both MyoD-positive cell ratio and myotube density and size then increased up to day-25 (FIGS. 12C-12E). […]

[3] = system: BDNF promoter IV; assay: Bisulfite sequencing of BDNF promoter IV in mouse cortical neurons; format: cell-based; conditions: KCl 50 mM, 6 hours
Protocol: as §1
DNA replication-independent active demethylation has been proposed to operate in post-mitotic neurons (Guo et al., 2011; Martinowich et al., 2003). To test whether active demethylation can be induced in post-mitotic neurons, we applied the dCas9-Tet1 system to study the regulation of the BDNF gene. BDNF expression can be induced by neuronal activity accompanied by demethylation of its promoter IV (Chen et al., 2003; Martinowich et al., 2003). We designed 4 gRNAs targeting 11 CpGs in BDNF promoter IV (FIG. 11A) to determine whether dCas9-Tet1 can activate BDNF by inducing demethylation of this promoter (FIG. 3A). […]

[4] = system: BDNF promoter IV; assay: Tet-assisted bisulfite sequencing (TAB-seq) of 5-hmC in BDNF promoter IV; format: cell-based, mouse; conditions: KCl treatment for 6 hours
Protocol: FIGS. 11A-11L depict targeted demethylation of BDNF promoter IV by dCas9-Tet1 in neurons. […] PAM for each gRNA is highlighted by a red box. […] Note that cultured neurons were treated with AraC on DIV2 to halt cell division in glial cells and neural progenitors. […] FIG. 11C provides EDU labeling analysis for the mouse primary neurons over the course of KCl treatment for 24 hrs. Note that extremely few EDU positive cells were observed. Stained in red for EDU, green for MAP2 and DAPI for nuclei. Scale bar: 500 um. FIG. 11D Upper panel: provides quantification of neuronal density over the course of KCl treatment. The post-mitotic neuron density remains steadily around 4.5×10^4/cm2 over time. Bars represent mean±SD of three experimental replicates. Lower panel: provides quantification of the EDU positive cells over the course of KCl treatment. Less than 2% of the cells are EDU-positive over 24 hrs. Bars represent mean±SD of three experimental replicates. FIG. 11E provides confocal micrographs of BDNF induction by ectopic expression of dCas9-Tet1 and a set of 4 gRNAs targeting BDNF promoter IV. Stained in green for BDNF, magenta for MAP2, red for Cherry and blue for DAPI. […]
Because post-mitotic neurons were used for these experiments, loss of methylation was likely due to active demethylation. […] Similarly, 5-hmC was also detected after KCl treatment (FIG. 11I). […]

For `O=C(O)CCC(O)C(=O)O` (stereo not drawn) [2-hydroxygluterate, 2-Hydroxyglutarate, reference compound], the “effect on induction of BDNF expression by KCl treatment” value ([1]; 10 mM for 2 hours, then KCl 50 mM for 6-hour) was “completely abolished the induction of BDNF expression by KCl treatment”.
With `Nc1ncn([C@@H]2O[C@H](CO)[C@@H](O)[C@H]2O)c(=O)n1` [5-Aza, 5-Azacytidine] the “MHC+ myotube formation” value ([2]; 5-Aza (1 uM, 24-hour), 14 days after infection) was “induces MHC+ myotube formation”, the “fraction of mock C3H10T1/2 cells expressing MyoD” value (“fraction” for short) ([2]; day 14) was “around 6%” and the “fraction” value ([2]; day 16) was “around 13%”. The “fraction” value ([2]; day 25) was “around 20%”.
`C[C@]1(c2nc3c(C(N)=O)cccc3[nH]2)CCCN1` [ABT-888, reference compound] was tested, and the “effect on activation of BDNF by KCl treatment” value ([1]; 50 uM for 6 hours, then KCl 50 mM for 6-hour) was “reduced the activation of BDNF by KCl treatment”.
For `[Cl-].[K+]` [KCl, reference compound], the “methylation of BDNF promoter IV CpGs (positions relative to transcription start site)” value [3] was “induced demethylation of CpGs at positions of −148, −66 and 19”, the “5-hmC level in BDNF promoter IV” value [4] was “detected” and the BDNF expression ([1]; KCl 50 mM treatment of DIV3 neurons) was “induced BDNF expression”.
